Measured values as given in US6426355B1, “Heterocyclic carboxamide-containing thiourea inhibitors of herpes viruses containing phenylenediamine group” (American Home Products, priority 1998, dated 2002).
Converted amounts (≈) assume the structure as drawn.

Legend:
VZV strain Ellen = assay: VZV Antiviral (ELISA) assay; format: cell-based; details: for inhibition at 10 µg/mL: Human alphaherpesvirus 3, read-out: % inhibition 10 ug/ml VZV, at 10 ug/ml, VZV strain Ellen in HFF cells; for IC50 (ug/ml) VZV / % inhibition 10 ug/ml VZV: VZV strain Ellen in HFF cells; for IC50: Human alphaherpesvirus 3, VZV strain Ellen in HFF cells, read-out: IC50 (ug/ml) VZV; for % inhibition 10 ug/ml VZV: at 10 ug/ml
Procedure, shortened: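 HFF cells infected overnight with VZV Ellen at MOI <0.1, mixed with uninfected cells, were seeded with compound and grown 3 days at 37° C in DMEM/2% FBS. Viral glycoprotein II was detected by ELISA with β-galactosidase-linked secondary; IC50 from fluorescence versus no-compound wells.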

[1] = tested on: HCMV recombinant mutant virus (RV145); assay: HCMV microtiter plate assay (beta-glucuronidase reporter); format: cell-based, Human Cytomegalovirus; details: for IC50: Human betaherpesvirus 5, Fibroblast, read-out: IC50 (ug/ml) HCMV; for IC50 (ug/ml) HCMV: HCMV in human foreskin fibroblasts
Procedure, shortened: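 Replication was read out as virus-encoded β-glucuronidase activity, measured with a chromogenic or fluorogenic glucuronide substrate in cell lysates at 96 h post-infection. Infection of human foreskin fibroblasts with RV145 took place with compound present. IC50 was derived from a range of inhibitor amounts.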

HSV-1 = assay: HSV Antiviral (ELISA) assay; format: cell-based; details: for IC50: Human alphaherpesvirus 1, HSV-1 in Vero cells, read-out: IC50 (ug/ml) HSV; for IC50 (ug/ml) HSV: HSV-1 in Vero cells
Procedure, shortened: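 Replication measured as glycoprotein D signal in fixed cells: anti-gD antibody plus β-galactosidase-linked secondary, fluorogenic substrate read at 365/450 nm. Vero cells (2% FBS DMEM) received compound 30 min pre-infection, HSV-1 MOI 0.006, ~24 h incubation; IC50 relative to no-compound fluorescence.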

Structure (SMILES)	inhibition at 10 µg/mL (VZV strain Ellen)	IC50 [1]	IC50 (HSV-1)	IC50 (ug/ml) VZV (VZV strain Ellen)	IC50 (ug/ml) HCMV [1]	IC50 (ug/ml) HSV (HSV-1)	IC50 (VZV strain Ellen)	% inhibition 10 ug/ml VZV (VZV strain Ellen)
O=C(Nc1ccc(NC(=S)Nc2cccc([N+](=O)[O-])c2)cc1)c1ccccc1F [Example 1009, 2-Fluoro-N-{4-[3-(3-nitro-phenyl)-thioureido]-phenyl} -benzamide]	22%	0.2 µg/mL (≈ 0.487 µM)	10 µg/mL (≈ 24.4 µM)					
COc1cccc(CCNC(=S)Nc2ccc(NC(=O)c3ccco3)cc2)c1 [Example 607]				>10 µg/mL	0.09 µg/mL (≈ 0.228 µM)	8 µg/mL (≈ 20.2 µM)		
O=C(Nc1ccc(NC(=S)Nc2cc(N3CCOCC3)cc(C(F)(F)F)c2)cc1)c1csnn1 [Example 559]				>10 µg/mL	0.012 µg/mL (≈ 0.0236 µM)	>10 µg/mL		
O=C(Nc1ccc(NC(=S)Nc2cccc(F)c2)cc1)c1ccco1 [Example 1007, Furan-2-carboxylic acid {4-[3-(3-fluoro-phenyl)-thioureido]-phenyl} -amide]	18%	0.11 µg/mL (≈ 0.31 µM)	> 10 µg/mL				> 10 µg/mL	
O=C(Nc1ccc(NC(=S)Nc2ccc(Br)c(C(F)(F)F)c2)cc1)c1csnn1 [Example 548]				>lo	0.008 µg/mL (≈ 0.0159 µM)	>10 µg/mL		
O=C(Nc1ccc(NC(=S)Nc2cc(Br)cc(C(F)(F)F)c2)cc1)c1csnn1 [Example 532]				6 µg/mL (≈ 11.9 µM)	0.009 µg/mL (≈ 0.0179 µM)	>10 µg/mL		
CC(O)c1ccc(NC(=S)Nc2ccc(NC(=O)c3ccco3)cc2)cc1Cl (stereo not shown) [Example 917, Furan-2-carboxylic acid (4-{3-[3-chloro-4-(1-hydroxy-ethyl)-phenyl]-thioureido}-phenyl)-amide]		0.2 µg/mL (≈ 0.481 µM)	10 µg/mL (≈ 24 µM)				> 10 µg/mL	
COc1cc(C)c(Cl)cc1NC(=S)Nc1ccc(NC(=O)c2csnn2)cc1 [Example 907, [1,2,3]Thiadiazole-4-carboxylic acid {4-[3-(5-chloro-2-methoxy-4-methyl-phenyl)-thioureido]-phenyl}-amide]	36%	0.009 µg/mL (≈ 0.0207 µM)	> 10 µg/mL				> 10 µg/mL	
O=C(Nc1ccc(NC(=S)Nc2ccc(NC(=O)c3ccccc3F)cc2)cc1Cl)OCCN1CCCCC1 [Example 438]				1.5 µg/mL (≈ 2.63 µM)	3 µg/mL (≈ 5.26 µM)	5 µg/mL (≈ 8.77 µM)		73%
O=C(CN1CCCCCC1)Nc1ccc(NC(=S)Nc2ccc(NC(=O)c3ccco3)cc2)cc1Cl [Example 422]				>10 µg/mL	0.058 µg/mL (≈ 0.11 µM)	5 µg/mL (≈ 9.5 µM)		69%
CC1CCCCN1CC(=O)Nc1ccc(NC(=S)Nc2ccc(NC(=O)c3ccco3)cc2)cc1Cl (stereo not shown) [Example 424]				0.7 µg/mL (≈ 1.33 µM)	0.09 µg/mL (≈ 0.171 µM)	3 µg/mL (≈ 5.7 µM)		103%
O=C(Nc1ccc(NC(=S)Nc2cc(Cl)ccc2Cl)cc1)c1csnn1 [Example 866, [1,2,3,]Thiadiazole-4-carboxylic acid {4-[3-(2,5-dichloro-phenyl)-thioureido]-phenyl}-amide]				>10 µg/mL	0.035 µg/mL (≈ 0.0825 µM)	>10 µg/mL		50%
O=C(Nc1ccc(NC(=S)Nc2cccc([N+](=O)[O-])c2)cc1)c1ccco1 [Example 1008, Furan-2-carboxylic acid {4-[3-(3-nitro-phenyl)-thioureido]-phenyl} -amide]	15%	0.12 µg/mL (≈ 0.314 µM)	> 10 µg/mL				> 10 µg/mL	
CC(NC(=S)Nc1ccc(NC(=O)c2cnccn2)cc1)c1ccc(F)cc1 (stereo not shown) [Example 1127, Pyrazine-2-carboxylic acid (4-{3-[1-(4-fluoro-phenyl)-ethyl]-thioureido}-phenyl)-amide]		1 µg/mL (≈ 2.53 µM)	9.5 µg/mL (≈ 24 µM)				3.7 µg/mL (≈ 9.36 µM)	
CCCCN(C)c1cc(NC(=S)Nc2ccc(NC(=O)c3csnn3)cc2)cc(C(F)(F)F)c1 [Example 597]				>10 µg/mL	0.008 µg/mL (≈ 0.0157 µM)	>10 µg/mL		
COc1cc(OC)c(NC(=S)Nc2ccc(NC(=O)c3ccno3)cc2)cc1Cl [Example 470]				>10 µg/mL	0.7 µg/mL (≈ 1.62 µM)	0.6 µg/mL (≈ 1.39 µM)		17%
CC(=O)Nc1ccc(NC(=S)Nc2ccc(C)c(Cl)c2)cc1 [Example 939, N-{4-[3-(3-Chloro-4-methyl-phenyl)-thioureido]-phenyl} -acetamide]	53%	0.018 µg/mL (≈ 0.0539 µM)	> 10 µg/mL				15 µg/mL (≈ 44.9 µM)	
COc1cc(OC)c(NC(=S)Nc2ccc(NC(=O)c3snnc3-c3ccccc3)cc2)cc1Cl [Example 264]				>10 µg/mL	>10 µg/mL	>10 µg/mL		28%
